{
  "source": "patent US10472380B2",
  "about": "“Platinum compounds having a heterocycle ligand, nanoparticles, and uses thereof” (PLACON THERAPEUTICS, INC., priority 2013, dated 2019)",
  "key": {"[1]": {"test_system": "A549 tumor cell line", "assay": "CellTiter-Glo cell viability assay in A549 tumor cell line", "format": "cell-based", "conditions": "CellTiter-Glo luminescence", "experimental": "The cell suspension was transferred to a centrifuge tube and centrifuged at 800-1000 rpm for 3-5 minutes.\nThe lyophilized CellTiter-Glo substrate was equilibrated to room temperature prior to use.\nThe contents were mixed for 2 minutes on an orbital shaker to induce cell lysis."}, "[2]": {"test_system": "A549 cells", "assay": "DNA platination in cells, DNA extracts analyzed by GFAA", "format": "cell-based", "conditions": "60 μM, 2 hours at 37° C.", "experimental": "5×10^6 A549 cells were received in tubes from Nobel Life Sciences in 10% FBS, 5% DMSO. Upon thawing, cells were washed with RPMI to remove the DMSO. […] Cells were then lysed and applied to a DNEasy™ DNA purification kit. The resulting DNA extracts were then analyzed by GFAA."}, "[3]": {"test_system": "calf thymus DNA", "conditions": "general statement on classic platinum agents; cited from earlier work"}},
  "data": [
    {"compound": "Di-1,1,3,3-tetramethylbutylcarbamate, ammonia quinoplatinium (II) [Compound 19]", "values": [
      {"measurement": "IC50", "setting": "[1]", "result": 4.3, "unit": "µM"}
    ]},
    {"compound": "N.N.[Cl][Pt][Cl]", "note": "[Cisplatin]", "values": [
      {"measurement": "DNA platination, % of Cisplatin standard", "setting": "[2]", "result": 100, "unit": "%"},
      {"measurement": "DNA associated platinum in this type of experiment", "setting": "[3]", "result": "high degree of DNA associated platinum"}
    ]}
  ]
}
